{"source": "patent US8119380B2", "about": "“Methods and materials for making and using transgenic dicamba-degrading organisms” (Board of Regents of University of Nebraska, priority 1997, dated 2012)", "molecules": {"B1": {"name": "component I: oxygenase component of dicamba O-demethylase (protein)", "chain": "MTFVRNAWYVAALPEELSEKPLGRTILDTPLALYRQPDGVVAALLDICPHRFAPLSDGILVNGHLQCPYHGLEFDGGGQCVHNPHGNGARPASLNVRSFPVVERDALIWIWPGDPALADPGAIPDFGCRVDPAYRTVGGYGHVDCNYKLLVDNLMDLGHAQYVHRANAQTDAFDRLEREVIVGDGEIQALMKIPGGTPSVLMAKFLRGANTPVDAWNDIRWNKVSAMLNFIAVAPEGTPKEQSIHSRGTHILTPETEASCHYFFGSSRNFGIDDPEMDGVLRSWQAQALVKEDKVVVEAIERRRAYVEANGIRPAMLSCDEAAVRVSREIEKLEQLEAA", "modifications": "Pseudomonas maltophilia DI-6", "notes": "oxygenase component of dicamba O-demethylase"}}, "key": {"plants": {"system": "plants", "conditions": "cited from earlier work"}, "dicamba O-demethylase [1]": {"system": "dicamba O-demethylase", "assay_type": "biochemical", "conditions": "mixture of three partially purified components, 30 minutes at 30° C.; 0.5 mM NADH, 0.5 mM NADPH, 10 mM MgCl2, 0.5 mM FeSO4, 0.2 mM FAD, 0.2 mM FMN", "experimental": "(§1) Enzyme assays. […] At specific times, the reactions were stopped by adding 50 μl of 5% (vol/vol) H2SO4.\n(§2) The solvent system for running the TLC was chloroform-ethanol-acetic acid (85:10:5 [vol/vol/vol]). The resolved reaction products were visualized and quantified by exposing the TLC plate to a phosphor screen for 24 hours and then scanning the screen in a PhosphorImager SF (Molecular Dynamics, Sunnyvale, Calif.). […] Specific activities were based on the total protein concentration of the assay mixture.\n(§3) When a single component was assayed, the other two components were provided in excess.\n(§4) Component and cofactor requirements. […] Samples were applied to a Q-Sepharose (Fast Flow) fast protein liquid chromatography column (Pharmacia) in buffer A and eluted with a 100-ml linear gradient of 0 to 0.6 M KCl (for the oxygenase component) or 0 to 1.0 M KCl (for the ferredoxin and reductase components) in 1.5-ml fractions. Appropriate pooled fractions from separate columns for oxygenase purification (fractions 29 to 37), for ferredoxin purification (fractions 30 to 37), or for reductase purification (fractions 26 to 38) were used for the determination of component and cofactor requirements.\n(§5) The three components were assayed for O-demethylase activity in various combinations to determine component requirements.\n(§6) The amounts of partially purified protein (provided in an optimized ratio) in the reaction mixtures were 85 μg of oxygenase, 55 μg of ferredoxin and 50 μg of reductase. The concentration of cofactors used in the reaction mixtures were 0.5 mM NADH, 0.2 mM FAD, 0.5 mM FeSO4, 10 mM MgCl2, 0.5 mM NADPH, and 0.2 mM FMN."}, "dicamba O-demethylase [2]": {"biological_target": "dicamba O-demethylase (Stenotrophomonas maltophilia, UniProt Q5S3I3)", "conditions": "cleared cell lysate, less than 1 ppm oxygen, 30° C., within 1 hour", "quoted_text": "Oxygen requirement. […] The procedures for displacement of oxygen from the reaction mixture were performed at 4° C. Reaction mixtures lacking enzyme were placed in a vial and sealed with a rubber stopper. For displacement of oxygen, the vial was evacuated twice by vacuum and flushed each time with nitrogen. After a third evacuation, the vial was flushed with 90% nitrogen plus 10% hydrogen. The enzyme solution was likewise purged of oxygen (with care taken not to bubble the enzyme solution). Both the reaction mixtures and enzyme solutions were transferred into an anaerobic chamber (95% N2-5% H2 atmosphere). Two hundred forty microliters of cleared cell lysate was injected through the rubber stopper with a microsyringe and gently mixed with 960 μl of oxygen-free reaction mixture. Reactions were carried out at 30° C."}, "COc1c(Cl)ccc(Cl)c1C(=O)O": {"system": "COc1c(Cl)ccc(Cl)c1C(=O)O", "experiment": "cells, lysate or membranes named", "conditions": "other: partially purified O-demethylase (40%-70% ammonium sulfate fraction), pH 7.0, 30° C., Michaelis-Menten/Lineweaver-Burk fit, duplicate experiments"}, "dicamba O-demethylase [3]": {"biological_target": "T1, dicamba O-demethylase (Stenotrophomonas maltophilia, UniProt Q5S3I3)", "T1 construct": "partially purified O-demethylase enzyme [the 40%-70% (w/v) (NH4)2SO4 fraction from a cleared cell lysate]; endogenous in cells; host or cells: Pseudomonas maltophilia strain DI-6 (cleared cell lysate, ammonium sulfate cut, or Phenyl-/Q-Sepharose fractions)", "T1 sequence (Q5S3I3 2-339)": "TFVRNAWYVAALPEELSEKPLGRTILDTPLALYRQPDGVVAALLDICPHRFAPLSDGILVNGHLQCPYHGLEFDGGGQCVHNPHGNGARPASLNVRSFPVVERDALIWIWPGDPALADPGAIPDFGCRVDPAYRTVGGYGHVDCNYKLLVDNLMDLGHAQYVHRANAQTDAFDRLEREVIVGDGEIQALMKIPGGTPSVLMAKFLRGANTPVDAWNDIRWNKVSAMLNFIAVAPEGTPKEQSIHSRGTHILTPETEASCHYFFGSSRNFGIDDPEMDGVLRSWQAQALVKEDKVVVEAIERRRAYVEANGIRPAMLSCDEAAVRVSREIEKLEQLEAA", "assay_type": "biochemical", "conditions": "mixed with excess amounts of components I and III; 55 μg partially purified component II or 100 μg highly purified Clostridium ferredoxin", "experimental": "as §1, §2, §3, §4, §5, §6"}, "[4]": {"experiment": "Reductase assays (reduction of cytochrome c or DCIP in the presence of NADH)", "assay_type": "biochemical", "experimental": "The reaction contained 0.5 mM NADH, 0.2 mM FAD (flavin adenine dinucleotide), 50 μM DCIP, 20 mM Tris buffer (pH 8.0), and 10-100 μl of enzyme sample in a total volume of 1 ml. The change in absorbance at 600 nm with time was measured at room temperature. Specific activity was calculated using an extinction coefficient at 600 nm of 21.0 mM^−1cm^−1 for reduced DCIP. Specific activity was expressed as nmol DCIP reduced min^−1 mg^−1 of protein.\nIn addition, an in situ DCIP assay was used to detect and locate the reductase activity in protein preparations separated on isoelectric focusing (IEF) gels. After electrophoresis of the proteins on an IEF gel, lanes sliced from the gel were washed with 20 ml of cold 20 mM Tris-HCl buffer (pH 8.0). Low melting agarose was dissolved by heating in 10 ml of 20 mM Tris-HCl buffer (pH 8.0) at a final concentration of 1.5% (w/v). When the agarose cooled to near room temperature, it was supplemented with 0.2 mM FAD, 50 μM DCIP, and 0.5 mM NADH. The assay mixture was poured onto a glass plate and allowed to solidify. The gel piece was placed on top of the solidified reaction mixture and allowed to set at room temperature for 15 minutes. If the gel slice contained a protein with reductase activity, a colorless band of reduced DCIP was generated in the blue background of DCIP."}}, "note": "“And” between values parts separate entries of the source, which are not always exact repeats. Equal values may be shown once.", "data": [{"molecule": "O=C(O)c1c(Cl)ccc(Cl)c1O", "note": "[3,6-DCSA, 3,6-dichlorosalicylic acid]", "values": [{"measurement": "herbicidal activity", "setting": "plants", "result": "no herbicidal activity"}]}, {"molecule": "Cc1cc2nc3c(=O)[nH]c(=O)nc-3n(C[C@H](O)[C@H](O)[C@H](O)COP(=O)(O)OP(=O)(O)OC[C@H]3O[C@@H](n4cnc5c(N)ncnc54)[C@H](O)[C@@H]3O)c2cc1C", "note": "[FAD, flavin adenine dinucleotide]", "values": [{"measurement": "cofactor effect on dicamba O-demethylase activity", "setting": "dicamba O-demethylase [1]", "result": "little or no stimulation"}]}, {"molecule": "Cc1cc2nc3c(=O)[nH]c(=O)nc-3n(C[C@H](O)[C@H](O)[C@H](O)COP(=O)(O)O)c2cc1C", "note": "[FMN, flavin mononucleotide]", "values": [{"measurement": "cofactor effect on dicamba O-demethylase activity", "setting": "dicamba O-demethylase [1]", "result": "little or no stimulation"}]}, {"molecule": "NC(=O)C1=CN([C@@H]2O[C@H](COP(=O)(O)OP(=O)(O)OC[C@H]3O[C@@H](n4cnc5c(N)ncnc54)[C@H](O)[C@@H]3O)[C@@H](O)[C@H]2O)C=CC1", "note": "[NADH, beta-nicotinamide adenine dinucleotide, reduced form]", "values": [{"measurement": "cofactor effect on dicamba O-demethylase activity", "setting": "dicamba O-demethylase [1]", "result": "markedly more effective than NADPH"}]}, {"molecule": "NC(=O)C1=CN([C@@H]2O[C@H](COP(=O)(O)OP(=O)(O)OC[C@H]3O[C@@H](n4cnc5c(N)ncnc54)[C@H](OP(=O)(O)O)[C@@H]3O)[C@@H](O)[C@H]2O)C=CC1", "note": "[NADPH]", "values": [{"measurement": "cofactor effect on dicamba O-demethylase activity", "setting": "dicamba O-demethylase [1]", "result": "supported enzyme activity"}]}, {"molecule": "COc1c(Cl)ccc(Cl)c1C(=O)O", "note": "[dicamba, 3,6-dichloro-2-methoxybenzoic acid]", "values": [{"measurement": "conversion of dicamba to 3,6-DCSA under anaerobic conditions", "setting": "dicamba O-demethylase [2]", "result": "virtually no conversion"}]}, {"molecule": "dicamba O-demethylase (Stenotrophomonas maltophilia)", "values": [{"measurement": "Km", "setting": "COc1c(Cl)ccc(Cl)c1C(=O)O", "result": "9.9 ± 3.9 µM and 10 µM"}]}, {"molecule": "ferredoxin from Clostridium: highly purified ferredoxin from Clostridium pasteurianum (AYKIADSCVSCGACASECPVNAISQGDSIFVIDADTCIDCGNCANVCPVGAPVQE; UniProt P00195 2-56, looked up)", "values": [{"measurement": "rate of conversion of dicamba to 3,6-DCSA (ferredoxin component)", "setting": "dicamba O-demethylase [3]", "result": 0.6, "unit": "nmol/min/mg"}]}, {"molecule": "B1", "values": [{"measurement": "reductase activity with cytochrome c or DCPIP in the presence of NADH", "setting": "[4]", "result": "Neither component I nor component II showed activity"}]}]}
